Assay results as given in ChEMBL document CHEMBL1145461 (J Med Chem, 2007).

Columns and labels:
[1] = target: T1, Steroid 17-alpha-hydroxylase/17,20 lyase (Homo sapiens, UniProt P05093); assay: (§1) Inhibition of human CYP17 expressed in Escherichia coli at 2.5 uM; conditions: 2.5 µM
T1 sequence (P05093 whole entry): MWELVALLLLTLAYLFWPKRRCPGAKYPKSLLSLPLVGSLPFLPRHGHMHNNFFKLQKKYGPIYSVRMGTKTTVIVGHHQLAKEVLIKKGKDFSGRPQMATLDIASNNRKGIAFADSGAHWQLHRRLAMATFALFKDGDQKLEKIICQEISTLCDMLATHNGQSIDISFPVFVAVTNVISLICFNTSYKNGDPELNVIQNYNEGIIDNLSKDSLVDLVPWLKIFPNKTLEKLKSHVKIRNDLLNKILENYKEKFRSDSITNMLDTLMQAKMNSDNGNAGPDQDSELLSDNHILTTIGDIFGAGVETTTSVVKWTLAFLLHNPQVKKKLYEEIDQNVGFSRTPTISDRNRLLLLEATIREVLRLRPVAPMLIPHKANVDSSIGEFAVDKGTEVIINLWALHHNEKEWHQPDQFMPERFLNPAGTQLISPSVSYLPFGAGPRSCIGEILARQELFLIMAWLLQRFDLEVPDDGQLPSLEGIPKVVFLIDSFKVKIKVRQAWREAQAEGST

[2] = target: T2, CYP17 (steroid 17-alpha-hydroxylase/17,20 lyase) (Homo sapiens, UniProt P05093); assay: as §1; conditions: recombinant human CYP17 expressed in Escherichia coli
T2 sequence (P05093 whole entry): T1 sequence (P05093 whole entry)

Aromatase = target: T3, Aromatase (Homo sapiens, UniProt P11511); assay: Inhibition of CYP19 in human placental microsomes; set-up: species or system Placenta
T3 sequence (P11511 whole entry): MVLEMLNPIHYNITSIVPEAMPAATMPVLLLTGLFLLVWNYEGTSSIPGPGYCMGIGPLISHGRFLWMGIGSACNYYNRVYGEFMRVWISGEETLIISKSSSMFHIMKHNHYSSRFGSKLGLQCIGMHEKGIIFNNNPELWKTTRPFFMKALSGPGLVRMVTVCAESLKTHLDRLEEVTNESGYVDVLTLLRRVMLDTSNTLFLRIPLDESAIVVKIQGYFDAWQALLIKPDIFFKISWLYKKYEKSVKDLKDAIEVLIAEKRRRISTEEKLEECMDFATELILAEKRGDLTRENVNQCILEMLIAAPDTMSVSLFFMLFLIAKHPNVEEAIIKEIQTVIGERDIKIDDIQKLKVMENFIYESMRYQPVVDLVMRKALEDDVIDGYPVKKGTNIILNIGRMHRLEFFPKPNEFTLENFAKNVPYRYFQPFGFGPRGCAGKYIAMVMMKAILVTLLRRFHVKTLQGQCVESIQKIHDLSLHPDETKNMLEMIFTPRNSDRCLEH

Inhibition [1] | inhibition at 2.5 µM [2] | IC50 (Aromatase) | Structure (SMILES)
Not Active | – | – | O=C(c1ccccc1)c1ccc(Cn2ccnc2)cc1
– | 15% | 400 nM | O=C(c1ccccc1)c1cc(Br)ccc1Cn1ccnc1
Not Active | – | 25.9 nM | O=C(c1ccccc1)c1cc([N+](=O)[O-])ccc1Cn1ccnc1
– | 17% | 17.7 nM | O=C(c1ccc(-c2ccccc2)cc1)c1cc([N+](=O)[O-])ccc1Cn1ccnc1
– | 24% | 260 nM | O=C(c1ccc(-c2ccccc2)cc1)c1ccccc1Cn1ccnc1
Not Active | – | 5.3 nM | O=C(c1ccc(-c2ccccc2)cc1)c1cccc(Cn2ccnc2)c1
Not Active | – | 560 nM | O=C(c1ccccc1)c1ccccc1Cn1ccnc1
Not Active | – | 31 nM | O=C(c1ccccc1)c1cc(Cn2ccnc2)ccc1[N+](=O)[O-]
Not Active | – | 7.3 nM | O=C(c1ccccc1)c1cccc(Cn2ccnc2)c1
Not Active | – | – | N#Cc1ccc(C2CCCc3cncn32)cc1 (stereo not drawn) [FADROZOLE]
